Assay results from the supplement of paper PMC10307832.

Columns and labels:
Assay in all cases: relative viability (nuclei count vs DMSO), 5 days (fraction); higher = more cells survive
ALW-II-49-7 + Navitoclax = compound: Cc1ccc(C(=O)Nc2cccc(C(F)(F)F)c2)cc1Nc1cncc(C(N)=O)c1 [ALW-II-49-7] + CC1(C)CCC(c2ccc(Cl)cc2)=C(CN2CCN(c3ccc(C(=O)NS(=O)(=O)c4ccc(N[C@H](CCN5CCOCC5)CSc5ccccc5)c(S(=O)(=O)C(F)(F)F)c4)cc3)CC2)C1 [Navitoclax] (partner 0.5 µM)
Procedure, shortened: (§1)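 Cells from lung cancer lines were seeded into 1536-well plates and, one day later, dosed by pin tool. Treatments were either a single drug or a fixed dose of an anchor drug with five library-drug doses (not always all listed) in √10 steps. After 5 days, nuclei were stained in a one-step fixation (final 0.05% Triton X-100, 1% formaldehyde, 1 ug/ml Hoechst) and counted on 4× images, and relative viability is the treated-to-vehicle nuclei ratio, as the median of duplicate plates.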

ALW-II-49-7 + Alpelisib = compound: Cc1ccc(C(=O)Nc2cccc(C(F)(F)F)c2)cc1Nc1cncc(C(N)=O)c1 [ALW-II-49-7] + Cc1nc(NC(=O)N2CCC[C@H]2C(N)=O)sc1-c1ccnc(C(C)(C)C(F)(F)F)c1 [Alpelisib] (partner 2 µM)
Procedure, shortened: as §1

Dasatinib + Luminespib = compound: Cc1nc(Nc2ncc(C(=O)Nc3c(C)cccc3Cl)s2)cc(N2CCN(CCO)CC2)n1 [Dasatinib] + CCNC(=O)c1noc(-c2cc(C(C)C)c(O)cc2O)c1-c1ccc(CN2CCOCC2)cc1 [Luminespib] (partner 0.01 µM)
Procedure, shortened: as §1

Dasatinib + Vorinostat = compound: Cc1nc(Nc2ncc(C(=O)Nc3c(C)cccc3Cl)s2)cc(N2CCN(CCO)CC2)n1 [Dasatinib] + O=C(CCCCCCC(=O)Nc1ccccc1)NO [Vorinostat] (partner 1 µM)
Procedure, shortened: as §1

Cell Line | relative viability (ALW-II-49-7 + Navitoclax; first compound 0.08 µM) | relative viability (ALW-II-49-7 + Navitoclax; first compound 0.253 µM) | relative viability (ALW-II-49-7 + Navitoclax; first compound 2.53 µM) | relative viability (ALW-II-49-7 + Navitoclax; first compound 8 µM) | relative viability (ALW-II-49-7 + Alpelisib; first compound 0.08 µM) | relative viability (ALW-II-49-7 + Alpelisib; first compound 0.253 µM) | relative viability (ALW-II-49-7 + Alpelisib; first compound 0.8 µM) | relative viability (ALW-II-49-7 + Alpelisib; first compound 2.53 µM) | relative viability (ALW-II-49-7 + Alpelisib; first compound 8 µM) | relative viability (Dasatinib + Luminespib; first compound 0.005 µM) | relative viability (Dasatinib + Luminespib; first compound 0.01581 µM) | relative viability (Dasatinib + Luminespib; first compound 0.05 µM) | relative viability (Dasatinib + Luminespib; first compound 0.1581 µM) | relative viability (Dasatinib + Luminespib; first compound 0.5 µM) | relative viability (Dasatinib + Vorinostat; first compound 0.005 µM) | relative viability (Dasatinib + Vorinostat; first compound 0.01581 µM) | relative viability (Dasatinib + Vorinostat; first compound 0.05 µM) | relative viability (Dasatinib + Vorinostat; first compound 0.1581 µM) | relative viability (Dasatinib + Vorinostat; first compound 0.5 µM) | relative viability (ALW-II-49-7 + Navitoclax; first compound 0.8 µM)
NCI-H647 | 1.03 | 1.3 | 0.479 | 0.716 | 0.769 | 1.13 | 1.19 | 0.882 | 0.557 | 0.141 | 0.0794 | 0.137 | 0.117 | 0.0952 | 0.674 | 0.49 | 0.415 | 0.149 | 0.184 | –
LXF-289 | 0.945 | 0.932 | 1.05 | 0.99 | 1.07 | 1.01 | 1.01 | 1.17 | 1.08 | 0.745 | 0.564 | 0.648 | 0.334 | 0.138 | 0.754 | 0.779 | 0.762 | 0.495 | 0.254 | 0.99
NCI-H1755 | 0.976 | 1.03 | 0.884 | 0.759 | 0.931 | 0.965 | 0.909 | 0.807 | 0.818 | 0.522 | 0.301 | 0.375 | 0.303 | 0.16 | 0.655 | 0.718 | 0.568 | 0.421 | 0.374 | 0.976
HCC-15 | 0.768 | 0.772 | 0.824 | 0.729 | 0.901 | 0.931 | 0.949 | 0.907 | 0.845 | 0.381 | 0.316 | 0.248 | 0.247 | 0.108 | 0.85 | 0.719 | 0.842 | 0.655 | 0.669 | 0.695
